By pEC50 is commonly meant the EC50 on a negative log10 scale, so that one unit is a factor of ten. A higher pEC50 goes with a small EC50.

pEC50: −log10 of the molar value. Where a name gives a salt, the structure may show the parent alone.

One assay addresses T1, PPARδ (Homo sapiens, UniProt Q03181).
T1 construct: fused to amino acids 147-441 of PPARδ downstream of CMV promoter; expressed in transfected cells; host or cells: HEK293 cells, transiently transfected with pFACMV-PPARδ using Fugene
T1 sequence (Q03181 147-441): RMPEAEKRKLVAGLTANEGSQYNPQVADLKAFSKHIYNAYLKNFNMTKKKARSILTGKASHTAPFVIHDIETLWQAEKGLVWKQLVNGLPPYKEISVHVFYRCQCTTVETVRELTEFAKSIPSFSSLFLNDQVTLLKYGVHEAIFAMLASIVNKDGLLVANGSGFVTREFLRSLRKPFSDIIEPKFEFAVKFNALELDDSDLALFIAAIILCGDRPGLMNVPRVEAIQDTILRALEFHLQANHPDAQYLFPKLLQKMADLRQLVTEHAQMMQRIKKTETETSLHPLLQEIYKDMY
Kind of assay: Transactivation assay (PPARδ GAL4 assay) in transiently transfected HEK293 cells. It counts as cell-based. As to conditions: luciferase reporter, Table 1. The method, boiled down:
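HEK293 cells transiently co-transfected with GAL4 DBD (aa 1-147)–PPARδ (aa 147-441) fusion and 5×GAL4-luciferase reporter, then exposed 24 h to compound (final 0-30 μM) in OptiMEM at 37° C. Luminescence read; activity as percent of GW501516 control, EC50 from sigmoidal dose-response fit.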
In general terms: In a reporter assay the amount or activity of a reporter protein is the signal.
Turning to `CCc1ccc(C(=O)c2cc(CC)sc2NC(=O)CC2(CC(=O)O)CCCC2)cc1` [Example 11, (1-{[5-Ethyl-3-(4-ethyl-benzoyl)-thiophen-2-ylcarbamoyl]-methyl}-cyclopentyl)-acetic acid], the pEC50 is 4.52 to 6.00. For `CCc1cc(C(=O)c2ccc(OC)cc2)c(NC(=O)CSc2ccc(OC(C)(C)C(=O)O)cc2)s1` [Example 92, 2-(4-{[5-Ethyl-3-(4-methoxy-benzoyl)-thiophen-2-ylcarbamoyl]-methylsulfanyl}-phenoxy)-2-methyl-propionic acid], the pEC50 was 6.00 to 7.00. Turning to `CCc1cc(C(=O)c2cccc(-c3ccc(OC(F)(F)F)cc3)c2)c(NC(=O)CNC(C)(C)C(=O)O)s1` [Example 84, 2-({[5-Ethyl-3-(4′-trifluoromethoxy-biphenyl-3-carbonyl)-thiophen-2-ylcarbamoyl]-methyl}-amino)-2-methyl-propionic acid], the pEC50 was 6.00 to 7.00.

The compound `CCc1cc(C(=O)c2ccc(Oc3ccccc3)cc2)c(NC(=O)CC(C)(C)CC(=O)O)s1` [Example 13, 4-[5-Ethyl-3-(4-phenoxy-benzoyl)-thiophen-2-ylcarbamoyl]-3,3-dimethyl-butyric acid] gave a pEC50 of 4.52 to 6.00. `CCc1cc(C(=O)c2ccc(C#N)cc2)c(NC(=O)CSCC(=O)O)s1` [Example 35, {[3-(4-Cyano-benzoyl)-5-ethyl-thiophen-2-ylcarbamoyl]-methylsulfanyl}-acetic acid]: the pEC50 is 4.52 to 6.00.

Consider `CCc1cc(C(=O)c2ccc(Cl)c(Cl)c2)c(NC(=O)CSC(C)(C)C(=O)O)s1` [Example 29, 2-{[3-(3,4-Dichloro-benzoyl)-5-ethyl-thiophen-2-ylcarbamoyl]-methylsulfanyl}-2-methyl-propionic acid], for which the pEC50 was > 7.00.

In the case of `CCc1cc(C(=O)c2ccc(F)cc2)c(NC(=O)CSCC(=O)O)s1` [Example 18, {[5-Ethyl-3-(4-fluoro-benzoyl)-thiophen-2-ylcarbamoyl]-methylsulfanyl}-acetic acid], the pEC50 is 4.52 to 6.00. In turn, `COc1ccc(C(=O)c2cc(Cl)sc2NC(=O)CSCC(=O)O)cn1` [Example 65, {[5-Chloro-3-(6-methoxy-pyridine-3-carbonyl)-thiophen-2-ylcarbamoyl]-methylsulfanyl}-acetic acid] had a pEC50 of 4.52 to 6.00.

Regarding `CCc1cc(C(=O)c2ccc(OC)cc2)c(NC(=O)CNCC(=O)O)s1` [Example 74, ({[5-Ethyl-3-(4-methoxy-benzoyl)-thiophen-2-ylcarbamoyl]-methyl}-amino)-acetic acid hydrochloride], the pEC50 was 4.52 to 6.00. `CCc1cc(C(=O)c2ccc(-c3ccccc3)cc2)c(NC(=O)CC(C)(C)CC(=O)O)s1` [Example 37, 4-[3-(Biphenyl-4-carbonyl)-5-ethyl-thiophen-2-ylcarbamoyl]-3,3-dimethyl-butyric acid] gave a pEC50 of 6.00 to 7.00. `CCc1cc(C(=O)c2ccc(Oc3ccccc3)nc2)c(NC(=O)CSCC(=O)O)s1` [Example 60, {[5-Ethyl-3-(6-phenoxy-pyridine-3-carbonyl)-thiophen-2-ylcarbamoyl]-methylsulfanyl}-acetic acid] gave a pEC50 of 4.52 to 6.00.

The compound `CCc1cc(C(=O)c2ccc(C(C)(C)C)cc2)c(NC(=O)CSCC(=O)O)s1` [Example 50, {[3-(4-tert-Butyl-benzoyl)-5-ethyl-thiophen-2-ylcarbamoyl]-methylsulfanyl}-acetic acid] gave a pEC50 of 4.52 to 6.00.

The assay is the same for the next values; noted with them: luciferase reporter, Table 2.
For `CCc1cc(C(=O)c2ccc(OC(F)(F)F)cc2)c(NC(=O)CNC2(C(=O)O)CCCCC2)s1` [Example 166, 1-({[5-Ethyl-3-(4-trifluoromethoxy-benzoyl)-thiophen-2-ylcarbamoyl]-methyl}-amino)-cyclohexanecarboxylic acid], the pEC50 is 6.00 to 7.00.

Take `CCc1cc(C(=O)c2ccc(OC(F)(F)F)c(F)c2)c(NC(=O)CSCC(=O)O)s1` [Example 131, {[5-Ethyl-3-(3-fluoro-4-trifluoromethoxy-benzoyl)-thiophen-2-ylcarbamoyl]-methylsulfanyl}-acetic acid]: the pEC50 is > 7.00. In the case of `CCc1cc(C(=O)c2ccc(OC(F)(F)F)cc2)c(NC(=O)CN2[C@@H](C(=O)O)CC[C@@H]2C)s1` [Example 182, (2R,5S)-1-{[5-Ethyl-3-(4-trifluoromethoxy-benzoyl)-thiophen-2-ylcarbamoyl]-methyl}-5-methyl-pyrrolidine-2-carboxylic acid], the pEC50 is > 7.00. With `CCc1cc(C(=O)c2ccc(OC(C)C)c(Cl)c2)c(NC(=O)CSCC(=O)O)s1` [Example 130, {[3-(3-Chloro-4-isopropoxy-benzoyl)-5-ethyl-thiophen-2-ylcarbamoyl]-methylsulfanyl}-acetic acid], the pEC50 was 6.00 to 7.00. As for `CCc1cc(C(=O)c2ccc(OC(F)(F)F)cc2)c(NC(=O)CN[C@H](C)C(=O)O)s1` [Example 161, (R)-2-({[5-Ethyl-3-(4-trifluoromethoxy-benzoyl)-thiophen-2-ylcarbamoyl]-methyl}-amino)-propionic acid], the pEC50 was 6.00 to 7.00. As for `CCc1cc(C(=O)c2ccc(OC(F)(F)F)cc2)c(NC(=O)C(C)NCC(=O)O)s1` (centres unmarked) [Example 158, {1-[5-Ethyl-3-(4-trifluoromethoxy-benzoyl)-thiophen-2-ylcarbamoyl]-ethylamino}-acetic acid], the negative-log EC50 (pEC50) was 6.00 to 7.00.

`CCc1cc(C(=O)c2cc3ccccc3o2)c(NC(=O)CSCC(=O)O)s1` [Example 140, {[3-(Benzofuran-2-carbonyl)-5-ethyl-thiophen-2-ylcarbamoyl]-methylsulfanyl}-acetic acid] gave a pEC50 of 4.52 to 6.00. `CCc1cc(C(=O)c2ccc(OC(F)(F)F)cc2)c(NC(=O)CN([C@@H](C)C(=O)O)S(C)(=O)=O)s1` [Example 126, (S)-2-({[5-Ethyl-3-(4-trifluoromethoxy-benzoyl)-thiophen-2-ylcarbamoyl]-methyl}-methanesulfonyl-amino)-propionic acid] showed a pEC50 of 4.52 to 6.00. For the compound `CCc1cc(C(=O)c2cc3cc(OC(F)(F)F)ccc3n2C)c(NC(=O)CCC(C)(C)C(=O)O)s1` [Example 152, 4-[5-Ethyl-3-(1-methyl-5-trifluoromethoxy-H-indole-2-carbonyl)-thiophen-2-ylcarbamoyl]-2,2-dimethyl-butyric acid], the pEC50 was > 7.00.

As for `CCc1cc(C(=O)c2ccc(OC(F)(F)F)cc2)c(NC(=O)CN[C@@H](C)C(=O)O)s1` [Example 160, (S)-2-({[5-Ethyl-3-(4-trifluoromethoxy-benzoyl)-thiophen-2-ylcarbamoyl]-methyl}-amino)-propionic acid], the pEC50 was 6.00 to 7.00.

Compound `CCc1cc(C(=O)c2ccc(OC(F)(F)F)cc2)c(NC(=O)CN2CCC[C@@H]2C(=O)O)s1` [Example 168, (R)-1-{[5-Ethyl-3-(4-trifluoromethoxy-benzoyl)-thiophen-2-ylcarbamoyl]-methyl}-pyrrolidine-2-carboxylic acid] gave a pEC50 of 6.00 to 7.00. For the compound `CCc1cc(C(=O)c2ccc(F)cc2)c(NC(=O)CSc2ccc(OC(C)(C)C(=O)O)cc2)s1` [Example 137, 2-(4-{[5-Ethyl-3-(4-fluoro-benzoyl)-thiophen-2-ylcarbamoyl]-methylsulfanyl}-phenoxy)-2-methyl-propionic acid], the pEC50 was 6.00 to 7.00. Same read-out and setting: in the case of `CCc1cc(C(=O)c2ccc(OC(F)(F)F)cc2)c(NC(=O)CN2CCC[C@H]2C(=O)O)s1` [Example 167, (S)-1-{[5-Ethyl-3-(4-trifluoromethoxy-benzoyl)-thiophen-2-ylcarbamoyl]-methyl}-pyrrolidine-2-carboxylic acid] it was 4.52 to 6.00; in that of `CCc1cc(C(=O)c2ccc(OC(F)(F)F)c(F)c2)c(NC(=O)CCC(C)(C)C(=O)O)s1` [Example 148, 4-[5-Ethyl-3-(3-fluoro-4-trifluoromethoxy-benzoyl)-thiophen-2-ylcarbamoyl]-2,2-dimethyl-butyric acid], 6.00 to 7.00; in that of `CCc1cc(C(=O)c2ccc(OC(F)(F)F)cc2)c(NC(=O)CCC(C)(C)C(=O)O)s1` [Example 146, 4-[5-Ethyl-3-(4-trifluoromethoxy-benzoyl)-thiophen-2-ylcarbamoyl]-2,2-dimethyl-butyric acid], > 7.00. `CCc1cc(C(=O)c2ccc(OC(F)(F)F)cc2)c(NC(=O)CN(CC)[C@@H](C)C(=O)O)s1` [Example 125, (S)-2-(Ethyl-{[5-ethyl-3-(4-trifluoromethoxy-benzoyl)-thiophen-2-ylcarbamoyl]-methyl}-amino)-propionic acid] had a pEC50 of 6.00 to 7.00. On to `CCc1cc(C(=O)c2ccc(OC(F)(F)F)cc2)c(NC(=O)C(SCC(=O)O)C(C)C)s1` (centres unmarked) [Example 114, {1-[5-Ethyl-3-(4-trifluoromethoxy-benzoyl)-thiophen-2-ylcarbamoyl]-2-methyl-propylsulfanyl}-acetic acid], for which the pEC50 was 6.00 to 7.00. `CCc1cc(C(=O)c2cccc(OC(F)(F)F)c2)c(NC(=O)CSCC(=O)O)s1` [Example 143, {[5-Ethyl-3-(3-trifluoromethoxy-benzoyl)-thiophen-2-ylcarbamoyl]-methylsulfanyl}-acetic acid] gave a pEC50 of 4.52 to 6.00. The same measure, in the same setting: in the case of `CCc1cc(C(=O)c2ccc(OC(F)(F)F)cc2)c(NC(=O)CC(C)CC(=O)O)s1` (centres unmarked) [Example 174, 4-[5-Ethyl-3-(4-trifluoromethoxy-benzoyl)-thiophen-2-ylcarbamoyl]-3-methyl-butyric acid] it was > 7.00.

In turn, `CCc1cc(C(=O)c2ccc(OCC(F)(F)F)cc2)c(NC(=O)CSCC(=O)O)s1` [Example 175, ({5-Ethyl-3-[4-(2,2,2-trifluoro-ethoxy)-benzoyl]-thiophen-2-ylcarbamoyl}-methylsulfanyl)-acetic acid] gave a pEC50 of 6.00 to 7.00.
